Data on 7 compounds can be found in patent publication US5424325A, “Aminoketone derivatives” (Mitsubishi Kasei Corporation, priority 1992, dated 1995).

One assay concerns the target T1, m-calpain (Rattus norvegicus, UniProt Q07009).
T1 construct: m-calpain was purified from a brain of rat; from tissue; host or cells: rat brain
T1 sequence (Q07009 20-700 limits assumed): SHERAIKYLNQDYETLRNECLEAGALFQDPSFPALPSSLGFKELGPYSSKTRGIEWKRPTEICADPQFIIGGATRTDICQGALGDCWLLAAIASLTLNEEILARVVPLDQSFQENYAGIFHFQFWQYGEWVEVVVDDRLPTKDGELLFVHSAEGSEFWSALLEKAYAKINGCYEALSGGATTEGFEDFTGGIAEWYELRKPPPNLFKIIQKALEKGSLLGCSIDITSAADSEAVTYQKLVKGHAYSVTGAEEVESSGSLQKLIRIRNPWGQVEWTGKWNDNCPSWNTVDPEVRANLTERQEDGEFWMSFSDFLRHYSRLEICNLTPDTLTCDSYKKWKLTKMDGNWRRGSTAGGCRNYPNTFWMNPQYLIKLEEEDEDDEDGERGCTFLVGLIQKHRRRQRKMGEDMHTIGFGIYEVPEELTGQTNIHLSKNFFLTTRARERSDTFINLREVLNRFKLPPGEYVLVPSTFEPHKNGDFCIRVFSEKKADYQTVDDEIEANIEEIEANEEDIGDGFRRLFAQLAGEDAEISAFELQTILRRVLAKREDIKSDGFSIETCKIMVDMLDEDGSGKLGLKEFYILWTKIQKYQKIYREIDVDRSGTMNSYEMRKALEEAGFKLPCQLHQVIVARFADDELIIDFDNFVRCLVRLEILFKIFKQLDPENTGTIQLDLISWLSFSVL
T1 sequence (Q64537 1-270 partner): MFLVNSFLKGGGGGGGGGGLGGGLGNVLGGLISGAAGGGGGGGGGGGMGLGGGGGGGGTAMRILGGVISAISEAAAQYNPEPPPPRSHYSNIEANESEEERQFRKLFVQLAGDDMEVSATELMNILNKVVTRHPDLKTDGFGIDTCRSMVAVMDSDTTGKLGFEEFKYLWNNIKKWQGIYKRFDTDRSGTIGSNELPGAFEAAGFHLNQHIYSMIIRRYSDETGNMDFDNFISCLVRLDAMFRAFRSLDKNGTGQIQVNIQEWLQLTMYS
As to the kind of experiment: Measurement of inhibitory activity against thiol protease (m-calpain purified from rat brain). It counts as biochemical. To be noted: m-calpain purified from a brain of rat. As to the method: Measurement of Inhibitory Activity against Thiol Protease
Through the known method disclosed in Journal of Biological Chemistry, vol. 259, page 3210, 1984, m-calpain was purified from a brain of rat. The inhibitory activity against it was measured and determined according to the method disclosed in Journal of Biological Chemistry, vol. 259, page 12489, 1984.

For assay [1], the system named is microtubule-associated protein. To be noted: after the brain ischemia; cited from earlier work.
For assay [2], the system named is brain trauma models of rat. To be noted: cited from earlier work.

`CCCC[C@H](NC(=O)COc1ccccc1)C(=O)CSCc1ccsc1` [17 (No. 86), (S)-3-phenoxyacetylamino-1-(3-thienylmethylthio)-2-heptanone] came in with an IC50 against m-calpain of 12.2 µM.
Still for that read-out and setting: as for `CCCC[C@H](NC(=O)COc1cccc(OC)c1)C(=O)CSCc1ccsc1` [18 (No. 87), (S)-3-(3-methoxyphenoxyacetylamino)-1-(3-thienylmethylthio)-2-heptanone], the figure is 13 µM; as for `O=C(COc1ccccc1)N[C@@H](Cc1ccccc1)C(=O)CSCc1ccco1` [38 (No. 171), (S)-1-furfurylthio-3-phenoxyacetylamino-4-phenyl-2-butanone], 17 µM; as for `COc1cccc(OCC(=O)N[C@@H](Cc2ccccc2)C(=O)CSCc2ccsc2)c1` [58 (No. 216), (S)-3-(3-methoxyphenoxyacetylamino)-4-phenyl-1-(3-thienylmethylthio)-2-butanone], 4.5 µM.
On the same count and under the same terms, the result for `COc1ccc(/C=C/C(=O)N[C@@H](Cc2ccccc2)C(=O)CSCc2ccsc2)c(OC)c1` [60 (No. 219), (S)-3-(2,4-dimethoxycinnamoylamino)-4-phenyl-1-(3-thienylmethylthio)-2-butanone] reads 14.5 µM.
`CC(C)CCNC(=O)[C@H](CC(C)C)NC(=O)[C@H]1O[C@@H]1C(=O)O` [E-64-C]: in assay [1], the “degradation of microtubule-associated protein” value is given as “inhibits the degradation of microtubule-associated protein after the brain ischemia”.
For the compound `CC(=O)N[C@@H](CC(C)C)C(=O)N[C@@H](CC(C)C)C(=O)N[C@H](C=O)CCCNC(=N)N` [leupeptin], the protection of axon entry in assay [2] is given as “can protect axon”.
